From patent US20240139192A1, “METHODS AND COMPOSITIONS COMPRISING A BRAF INHIBITOR AND A MEK INHIBITOR” (Hoffmann-La Roche Inc., priority 2021, published 2024) come the findings set out here.

The target in assay [1] is lymphocyte-specific tyrosine protein kinase (LCK) (Homo sapiens, UniProt P06239). Nature of the assay: biochemical.
In assay [2] the target is CRAF (Homo sapiens, UniProt P04049). The experiment in a line: biochemical.
Assay [3] relates to P-ERK in A375 cells (V600E mutated BRAF). Nature of the assay: HTRF assay for P-ERK determination in A375 cells. It is filed as cell-based. Conditions: Homo sapiens, A-375; A375 cell line, 1 hour drug incubation; read-out: pERK IC50 A375. From the text:
DMEM no-phenol red medium supplemented with L-glutamine was purchased from (Thermo Fisher Scientific). Fetal bovine serum (FBS) was purchased from VWR. […] 384-well microplates were purchased from Greiner Bio-One, 384-well, (With Lid, HiBase, Low volume cat 784-080).
ERK 1,2 phosphorylation (terminal member of the phosphorylation cascade of the MAPK pathway) is hereafter reported as main readout for the activation status of the MAPK pathway.
In order to allow proper data normalization control wells without drug treatment reported are always included in each plate (according to manufacturer's instruction):
The plate is then centrifuged at 300 rcf for 30 second, sealed to prevent evaporation and incubated overnight in the dark at room temperature.
The plate is then analyzed and fluorescence emission value collected through a Pherastast FSX (BMG Labtech) apparatus at […].
Data are normalized considering the average of the ratio (blank subtracted) derived by DMSO only treated cells as 100% and by considering the average of the ratio (blank subtracted) derived by 10 μM dabrafenib treated cells as 0%. Mean of the normalized points are fitted with sigmoidal curve and IC50 determined. […] Kd is the dissociation constant in the biochemical experiments.

The target in assay [4] is BRAF V600E (Homo sapiens, UniProt P15056, V600E). Nature of the assay: biochemical.
Sequence of BRAF V600E (P15056 whole entry V600E): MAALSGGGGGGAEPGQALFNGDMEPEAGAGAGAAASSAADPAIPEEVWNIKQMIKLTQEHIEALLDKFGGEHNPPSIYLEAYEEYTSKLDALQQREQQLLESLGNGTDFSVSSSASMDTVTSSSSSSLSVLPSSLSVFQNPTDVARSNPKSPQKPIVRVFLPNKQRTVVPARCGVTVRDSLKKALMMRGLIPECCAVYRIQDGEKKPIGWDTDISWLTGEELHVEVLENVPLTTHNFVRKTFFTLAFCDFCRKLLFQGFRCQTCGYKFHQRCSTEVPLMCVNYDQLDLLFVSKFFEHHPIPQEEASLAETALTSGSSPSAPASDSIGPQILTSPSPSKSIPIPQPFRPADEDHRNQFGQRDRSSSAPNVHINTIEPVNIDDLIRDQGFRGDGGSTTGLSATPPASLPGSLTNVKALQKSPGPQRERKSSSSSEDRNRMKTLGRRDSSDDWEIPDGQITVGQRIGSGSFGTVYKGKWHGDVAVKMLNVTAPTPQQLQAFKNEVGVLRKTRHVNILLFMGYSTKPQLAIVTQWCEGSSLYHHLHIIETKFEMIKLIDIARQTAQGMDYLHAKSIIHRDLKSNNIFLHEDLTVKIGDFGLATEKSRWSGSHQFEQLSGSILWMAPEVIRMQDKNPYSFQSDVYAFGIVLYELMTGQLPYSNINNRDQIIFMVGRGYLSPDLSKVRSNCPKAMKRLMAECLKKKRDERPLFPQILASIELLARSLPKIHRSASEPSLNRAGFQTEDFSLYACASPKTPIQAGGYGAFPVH
In assay [5] the target is C-terminal Src kinase (CSK) (Homo sapiens, UniProt P41240). Nature of the assay: biochemical.
Sequence of C-terminal Src kinase (CSK) (P41240 whole entry): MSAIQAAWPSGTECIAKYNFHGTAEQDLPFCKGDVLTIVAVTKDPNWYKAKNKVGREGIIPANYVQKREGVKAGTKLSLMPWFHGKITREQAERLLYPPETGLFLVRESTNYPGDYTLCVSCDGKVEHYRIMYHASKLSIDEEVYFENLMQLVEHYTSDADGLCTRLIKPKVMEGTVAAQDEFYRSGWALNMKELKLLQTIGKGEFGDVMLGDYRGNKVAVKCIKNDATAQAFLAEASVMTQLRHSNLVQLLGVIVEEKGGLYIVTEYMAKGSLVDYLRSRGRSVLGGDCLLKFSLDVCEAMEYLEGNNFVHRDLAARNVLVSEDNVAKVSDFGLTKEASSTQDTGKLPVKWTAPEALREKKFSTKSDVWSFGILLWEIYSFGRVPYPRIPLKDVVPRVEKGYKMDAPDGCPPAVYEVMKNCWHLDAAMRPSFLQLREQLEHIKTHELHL
Assay [6] has as its target BRAF (Homo sapiens, UniProt P15056). The experiment in a line: biochemical.
Assay [7] deals with P-ERK in A375 NRAS Q61K cells. The experiment in a line: Western Blot analysis of phosphorylated ERK in A375 NRAS Q61K cells. The class given is cell-based. Conditions: 1 h, alone or with 10 nM Cobimetinib, compared with Encorafenib or Encorafenib/Cobimetinib (FIG. 1).
Experimental: Cell lines were obtained from ATCC, maintained in humidified incubators at 5% CO2 in standard conditions and passaged twice a week.
The A375 cell line presenting BRAF V600E and the RAF dimer inducing mutation NRAS Q61K was utilized to model a mechanism of resistance to BRAFi and BRAFi/MEKi combinations.

Sequence of CRAF (P04049 whole entry): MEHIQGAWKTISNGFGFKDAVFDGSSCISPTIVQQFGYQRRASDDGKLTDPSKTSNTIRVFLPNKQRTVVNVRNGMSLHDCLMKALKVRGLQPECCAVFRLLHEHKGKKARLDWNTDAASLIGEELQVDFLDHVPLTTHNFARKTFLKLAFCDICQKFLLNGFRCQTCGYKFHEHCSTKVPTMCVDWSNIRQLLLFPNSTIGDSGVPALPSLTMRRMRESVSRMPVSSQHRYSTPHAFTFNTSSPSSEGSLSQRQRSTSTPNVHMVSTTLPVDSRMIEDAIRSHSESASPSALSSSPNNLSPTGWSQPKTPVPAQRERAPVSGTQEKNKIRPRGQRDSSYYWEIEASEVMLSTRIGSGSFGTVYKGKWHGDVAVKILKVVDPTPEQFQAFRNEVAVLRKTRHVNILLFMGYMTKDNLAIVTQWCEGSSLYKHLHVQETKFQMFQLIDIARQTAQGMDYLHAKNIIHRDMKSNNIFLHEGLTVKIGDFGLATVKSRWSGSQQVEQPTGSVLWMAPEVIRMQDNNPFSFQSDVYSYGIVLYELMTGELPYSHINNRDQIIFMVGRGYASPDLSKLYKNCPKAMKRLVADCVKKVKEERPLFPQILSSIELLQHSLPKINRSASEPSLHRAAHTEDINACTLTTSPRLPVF
Sequence of BRAF (P15056 whole entry): as the sequence (P15056 whole entry V600E) above, with E600V counted along it
Sequence of lymphocyte-specific tyrosine protein kinase (LCK) (P06239 whole entry): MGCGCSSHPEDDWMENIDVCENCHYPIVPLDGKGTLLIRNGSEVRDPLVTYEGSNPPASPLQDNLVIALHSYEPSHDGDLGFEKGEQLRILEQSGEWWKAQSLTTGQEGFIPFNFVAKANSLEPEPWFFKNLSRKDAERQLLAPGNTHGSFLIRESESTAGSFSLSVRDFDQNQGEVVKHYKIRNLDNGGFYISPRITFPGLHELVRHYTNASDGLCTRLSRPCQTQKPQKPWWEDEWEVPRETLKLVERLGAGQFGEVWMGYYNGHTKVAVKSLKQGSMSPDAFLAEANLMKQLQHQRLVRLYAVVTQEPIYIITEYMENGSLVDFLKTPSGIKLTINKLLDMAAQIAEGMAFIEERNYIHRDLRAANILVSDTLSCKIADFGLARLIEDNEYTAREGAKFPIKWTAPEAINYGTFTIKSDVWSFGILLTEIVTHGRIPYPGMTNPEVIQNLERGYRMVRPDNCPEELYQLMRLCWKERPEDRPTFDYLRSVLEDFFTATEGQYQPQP

Consider `Cn1cnc2ccc(Oc3c(F)ccc(NS(=O)(=O)N4CC[C@H](F)C4)c3C#N)cc2c1=O` [(Ib), (3S)-N-[2-cyano-4-fluoro-3-(3-methyl-4-oxo-quinazolin-6-yl)oxy-phenyl]-3-fluoro-pyrrolidine-1-sulfonamide], for which the Kd is 20100 nM in assay [1]; 1.2 nM in assay [2]; 0.9 nM in assay [4]; 9160 nM in assay [5]; 1.3 nM in assay [6]. Moreover, the IC50 in assay [3] worked out at 10.6 nM.
In the case of `Cn1cnc2ccc(Oc3c(F)ccc(NS(=O)(=O)N4CC[C@@H](F)C4)c3C#N)cc2c1=O` [(Ia), (3R)-N-[2-cyano-4-fluoro-3-(3-methyl-4-oxo-quinazolin-6-yl)oxy-phenyl]-3-fluoro-pyrrolidine-1-sulfonamide], the Kd in assay [1] is 40000 nM; in assay [2] it was 1.7 nM; in assay [4] it was 1.2 nM; in assay [5], 23300 nM; in assay [6] it was 0.6 nM. In addition, the IC50 in assay [3] was 6.9 nM. Further, the “P-ERK inhibition (Western Blot)” value in assay [7] is “superior P-ERK inhibition compared to Encorafenib”.
